Common to all, as to format: biochemical
In one test the target is T1, PI3K δ (Homo sapiens, UniProt O00329).
T1 construct: purchased Upstate / Millipore Corporation
Briefly: PI 3-Kinase (human) HTRF assay, PI3K δ. To be noted: read-out: PI3K δ IC50. For orientation: TR-FRET usually uses a lanthanide donor and a delayed reading to cut background.

The target in another test is T2, PI3K α (p110α/p85α) (Homo sapiens, UniProt P42336).
T2 construct: purchased Upstate / Millipore Corporation
Briefly: PI 3-Kinase (human) HTRF assay, PI3K α. To be noted: read-out: PI3K α IC50.

The next test deals with T3, PI3K β (p110β/p85α) (Homo sapiens, UniProt P42338).
T3 construct: purchased Upstate / Millipore Corporation
Briefly: PI 3-Kinase (human) HTRF assay, PI3K β. Particulars: read-out: PI3K β IC50.

SMILES strings stand for the structures. pIC50: −log10 of the molar value. Read-outs that look alike come from different tables or passages of the source. A value given as a limit tells only on which side of the number the result lay.

T3 sequence (P42338 whole entry): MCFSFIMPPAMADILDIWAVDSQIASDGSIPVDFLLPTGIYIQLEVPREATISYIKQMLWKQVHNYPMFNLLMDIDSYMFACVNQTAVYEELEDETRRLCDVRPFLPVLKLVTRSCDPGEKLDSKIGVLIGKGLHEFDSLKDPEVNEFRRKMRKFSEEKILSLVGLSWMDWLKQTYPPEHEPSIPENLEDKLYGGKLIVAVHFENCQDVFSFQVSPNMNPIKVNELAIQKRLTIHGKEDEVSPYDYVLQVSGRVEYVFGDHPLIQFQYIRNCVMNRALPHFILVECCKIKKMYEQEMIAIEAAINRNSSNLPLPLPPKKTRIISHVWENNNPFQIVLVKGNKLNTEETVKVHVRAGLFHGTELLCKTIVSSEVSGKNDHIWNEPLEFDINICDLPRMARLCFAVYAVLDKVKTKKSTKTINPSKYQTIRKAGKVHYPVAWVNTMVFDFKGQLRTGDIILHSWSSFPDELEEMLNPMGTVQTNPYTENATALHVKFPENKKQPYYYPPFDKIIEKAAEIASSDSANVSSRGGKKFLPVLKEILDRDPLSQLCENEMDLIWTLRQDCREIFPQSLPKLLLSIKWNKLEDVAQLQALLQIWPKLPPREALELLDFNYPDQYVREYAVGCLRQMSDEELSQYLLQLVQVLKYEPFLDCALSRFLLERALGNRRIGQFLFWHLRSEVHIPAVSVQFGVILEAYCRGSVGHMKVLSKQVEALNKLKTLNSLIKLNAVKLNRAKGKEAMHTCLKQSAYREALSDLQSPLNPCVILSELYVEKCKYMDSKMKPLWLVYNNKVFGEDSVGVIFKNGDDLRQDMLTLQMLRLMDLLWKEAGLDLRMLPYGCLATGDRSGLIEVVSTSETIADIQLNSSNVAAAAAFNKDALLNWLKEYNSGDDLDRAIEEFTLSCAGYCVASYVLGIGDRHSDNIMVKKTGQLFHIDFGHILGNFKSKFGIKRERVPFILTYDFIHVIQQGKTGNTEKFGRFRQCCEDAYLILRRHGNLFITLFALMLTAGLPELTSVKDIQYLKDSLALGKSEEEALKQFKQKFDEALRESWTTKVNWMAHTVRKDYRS
T3 sequence (P27986 whole entry partner): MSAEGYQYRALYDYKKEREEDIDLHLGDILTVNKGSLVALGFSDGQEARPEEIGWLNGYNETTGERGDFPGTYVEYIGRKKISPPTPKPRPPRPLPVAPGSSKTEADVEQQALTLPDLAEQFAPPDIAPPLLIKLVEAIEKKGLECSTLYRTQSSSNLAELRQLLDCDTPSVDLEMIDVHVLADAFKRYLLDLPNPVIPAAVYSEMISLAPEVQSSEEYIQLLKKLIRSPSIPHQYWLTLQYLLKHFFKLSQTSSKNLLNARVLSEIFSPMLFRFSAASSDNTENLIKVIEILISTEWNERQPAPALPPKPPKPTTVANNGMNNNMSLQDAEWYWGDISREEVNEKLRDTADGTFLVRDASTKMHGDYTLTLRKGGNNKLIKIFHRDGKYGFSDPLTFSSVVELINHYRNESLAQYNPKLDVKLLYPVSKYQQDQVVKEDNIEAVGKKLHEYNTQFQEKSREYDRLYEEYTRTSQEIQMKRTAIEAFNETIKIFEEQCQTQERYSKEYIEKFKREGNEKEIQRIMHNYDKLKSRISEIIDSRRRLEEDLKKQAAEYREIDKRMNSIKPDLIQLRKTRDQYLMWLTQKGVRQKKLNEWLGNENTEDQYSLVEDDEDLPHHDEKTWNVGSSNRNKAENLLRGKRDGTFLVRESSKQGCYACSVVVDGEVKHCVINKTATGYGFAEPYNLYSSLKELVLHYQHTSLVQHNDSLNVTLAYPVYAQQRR
T2 sequence (P42336 whole entry): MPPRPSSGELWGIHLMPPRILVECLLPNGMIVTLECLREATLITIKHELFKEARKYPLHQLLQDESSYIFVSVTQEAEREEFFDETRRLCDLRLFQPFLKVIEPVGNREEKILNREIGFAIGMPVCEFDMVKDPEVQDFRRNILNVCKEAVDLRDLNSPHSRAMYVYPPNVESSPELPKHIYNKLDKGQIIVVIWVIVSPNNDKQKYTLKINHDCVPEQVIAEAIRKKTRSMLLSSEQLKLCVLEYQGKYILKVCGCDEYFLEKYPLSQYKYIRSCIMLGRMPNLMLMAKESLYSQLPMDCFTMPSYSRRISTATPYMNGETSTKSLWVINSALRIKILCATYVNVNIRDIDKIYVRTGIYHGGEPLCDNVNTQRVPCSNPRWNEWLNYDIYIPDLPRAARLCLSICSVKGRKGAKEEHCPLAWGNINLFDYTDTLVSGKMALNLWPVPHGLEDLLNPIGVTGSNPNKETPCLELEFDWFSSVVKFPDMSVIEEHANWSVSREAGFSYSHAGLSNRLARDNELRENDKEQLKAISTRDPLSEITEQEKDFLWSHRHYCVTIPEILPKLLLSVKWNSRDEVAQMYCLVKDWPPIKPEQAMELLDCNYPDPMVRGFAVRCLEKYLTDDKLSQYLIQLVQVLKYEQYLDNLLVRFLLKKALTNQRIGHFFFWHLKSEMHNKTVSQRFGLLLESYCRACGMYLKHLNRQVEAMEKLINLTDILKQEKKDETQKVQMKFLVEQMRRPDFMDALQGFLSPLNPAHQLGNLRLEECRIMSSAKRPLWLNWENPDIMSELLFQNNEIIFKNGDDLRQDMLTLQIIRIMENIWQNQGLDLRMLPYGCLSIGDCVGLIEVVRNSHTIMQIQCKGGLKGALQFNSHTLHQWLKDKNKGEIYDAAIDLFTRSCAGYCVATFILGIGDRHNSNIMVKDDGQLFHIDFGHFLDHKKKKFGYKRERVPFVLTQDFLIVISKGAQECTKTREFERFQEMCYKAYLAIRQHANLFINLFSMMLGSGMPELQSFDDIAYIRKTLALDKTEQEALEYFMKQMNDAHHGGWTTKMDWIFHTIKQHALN
T2 sequence (P27986 whole entry partner): as the sequence (P27986 whole entry partner) above
T1 sequence (O00329 whole entry): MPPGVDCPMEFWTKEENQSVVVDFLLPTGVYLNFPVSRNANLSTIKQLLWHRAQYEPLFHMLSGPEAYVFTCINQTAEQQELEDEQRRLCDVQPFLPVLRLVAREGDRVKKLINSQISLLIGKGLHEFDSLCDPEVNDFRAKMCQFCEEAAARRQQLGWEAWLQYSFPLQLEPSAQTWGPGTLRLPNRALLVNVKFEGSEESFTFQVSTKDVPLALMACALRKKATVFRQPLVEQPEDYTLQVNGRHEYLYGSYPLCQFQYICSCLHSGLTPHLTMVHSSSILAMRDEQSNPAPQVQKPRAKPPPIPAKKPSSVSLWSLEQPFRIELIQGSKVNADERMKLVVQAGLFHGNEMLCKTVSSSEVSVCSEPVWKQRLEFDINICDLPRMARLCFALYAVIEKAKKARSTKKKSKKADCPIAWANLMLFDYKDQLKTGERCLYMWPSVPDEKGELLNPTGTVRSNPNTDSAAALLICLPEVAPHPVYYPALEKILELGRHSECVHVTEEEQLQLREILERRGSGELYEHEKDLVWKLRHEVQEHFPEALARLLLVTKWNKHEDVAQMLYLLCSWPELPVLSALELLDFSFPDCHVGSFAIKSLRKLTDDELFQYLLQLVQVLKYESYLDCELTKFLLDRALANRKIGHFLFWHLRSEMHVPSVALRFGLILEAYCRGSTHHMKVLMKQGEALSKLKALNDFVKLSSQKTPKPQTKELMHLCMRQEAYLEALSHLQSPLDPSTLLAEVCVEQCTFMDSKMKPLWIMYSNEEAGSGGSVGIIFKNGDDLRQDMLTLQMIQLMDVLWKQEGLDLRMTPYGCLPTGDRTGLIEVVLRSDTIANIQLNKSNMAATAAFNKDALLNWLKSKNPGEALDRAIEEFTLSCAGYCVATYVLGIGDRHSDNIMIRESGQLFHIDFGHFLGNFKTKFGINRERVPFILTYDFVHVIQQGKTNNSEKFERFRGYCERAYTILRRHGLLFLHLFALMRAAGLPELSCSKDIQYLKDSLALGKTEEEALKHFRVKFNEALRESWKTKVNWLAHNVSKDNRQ
T1 sequence (P27986 whole entry partner): as the sequence (P27986 whole entry partner) above

As to `Nc1nc2cc(-c3ccc4nc(N)c(N5CC(N6CCOCC6)C5)nc4c3)ccc2o1` [Compound 404], the negative-log IC50 (pIC50) on PI3K δ, at PI3K α (p110α/p85α) and on PI3K β (p110β/p85α) was less than 5.00 throughout.
Turning to `CN(C)C1CCN(C(=O)c2cnc3ccc(-c4ccc5oc(N)nc5c4)cn23)CC1` [Compound 304], the pIC50 on PI3K δ is less than 5.00; on PI3K α (p110α/p85α), greater than 6.00; at PI3K β (p110β/p85α) it was less than 5.00.
With `Nc1nc2cc(-c3ccc4ncc(N5CCOCC5)nc4n3)ccc2o1` [Compound 553], the negative logarithm of the IC50 (pIC50) was less than 5.00 on PI3K δ (Table 4 (PI3K α inhibitors)), greater than 7.00 on PI3K α (p110α/p85α) (Table 4 (PI3K α inhibitors)) and greater than 6.00 at PI3K β (p110β/p85α) (Table 4 (PI3K α inhibitors)).
In the case of `CC(C)(N)C(=O)N1CCN(c2cnc3ccc(-c4ccc5oc(N)nc5c4)cc3n2)CC1` [Compound 213], the figures for the pIC50 on PI3K δ, on PI3K α (p110α/p85α) and on PI3K β (p110β/p85α) were greater than 6.00, greater than 7.00 and greater than 6.00, respectively.
As for `Nc1nc2cc(-c3ccc4ncc(C(=O)N5CCC(O)C5)n4c3)ccc2o1` (stereo not drawn) [Compound 202], the values for the negative logarithm of the IC50 (pIC50) on PI3K δ, at PI3K α (p110α/p85α) and at PI3K β (p110β/p85α) were greater than 5.00, greater than 7.00 and greater than 5.00, respectively.
As to `COc1ccc(-c2ccc3ncc(C(=O)N4CCOCC4)n3c2)cc1NS(=O)(=O)c1ccccc1` [Compound 455], the negative logarithm of the IC50 (pIC50) is less than 5.00 at PI3K δ, greater than 5.00 at PI3K α (p110α/p85α) and less than 5.00 at PI3K β (p110β/p85α).
With `Nc1nc2cc(-c3ccc4ncc(N5CC(O)C5)nc4c3)ccc2o1` [Compound 216], the values for the pIC50 on PI3K δ, at PI3K α (p110α/p85α) and at PI3K β (p110β/p85α) were greater than 5.00, greater than 7.00 and greater than 6.00, respectively.
Consider `Nc1nc2cc(-c3ccc4ncc(C(=O)NCCN5CCCC5)n4c3)ccc2o1` [Compound 296], for which the pIC50 on PI3K δ is greater than 6.00; at PI3K α (p110α/p85α), greater than 6.00; on PI3K β (p110β/p85α) it was greater than 5.00.
For the molecule `Nc1nc2cc(-c3ccc4ncc(C(=O)N5CCC(N)CC5)n4c3)ccc2o1` [Compound 204], the pIC50 is less than 5.00 on PI3K δ, greater than 7.00 on PI3K α (p110α/p85α) and greater than 6.00 on PI3K β (p110β/p85α).
With `CC(=O)Nc1nc2ccc(-c3cc(F)c4oc(N)nc4c3)cc2s1` [Compound 434], the pIC50 on PI3K δ, on PI3K α (p110α/p85α) and at PI3K β (p110β/p85α) was greater than 7.00 in each case.
On to `Cc1c(-c2ccc3oc(N)nc3c2)ccc2ncc(N3CC(N4CCNCC4)C3)nc12` [Compound 386], for which the figures for the pIC50 on PI3K δ, on PI3K α (p110α/p85α) and at PI3K β (p110β/p85α) were less than 5.00, greater than 7.00 and less than 5.00, respectively.
For the molecule `COCCN1CCN(c2cnc3ccc(-c4ccc5oc(N)nc5c4)cc3n2)CC1` [Compound 387], the negative logarithm of the IC50 (pIC50) is less than 5.00 on PI3K δ, greater than 7.00 at PI3K α (p110α/p85α) and greater than 6.00 at PI3K β (p110β/p85α).
`O=C(c1cnc2ccc(-c3cnc(Cl)c(NS(=O)(=O)c4ccccc4F)c3)cn12)N1CCOCC1` [Compound 452]: the negative logarithm of the IC50 (pIC50) was greater than 7.00 on PI3K δ, greater than 7.00 at PI3K α (p110α/p85α) and greater than 6.00 on PI3K β (p110β/p85α).
On to `CN1CCN(C2CCN(c3cnc4ccc(-c5ccc6oc(N)nc6c5)cc4n3)CC2)CC1` [Compound 227], for which the negative-log IC50 (pIC50) at PI3K δ was greater than 7.00; at PI3K α (p110α/p85α), greater than 7.00; on PI3K β (p110β/p85α) it was greater than 6.00.
In the case of `Nc1nc2cc(-c3ccn4ncc(C(=O)N5CCCC5)c4c3)ccc2o1` [Compound 346], the negative logarithm of the IC50 (pIC50) on PI3K δ is less than 5.00; at PI3K α (p110α/p85α), greater than 7.00; at PI3K β (p110β/p85α) it was greater than 5.00.
With `CCNC(=O)c1cnc2ccc(-c3ccc4oc(N)nc4c3)cn12` [Compound 188], the pIC50 is greater than 6.00 at PI3K δ, greater than 7.00 on PI3K α (p110α/p85α) and greater than 6.00 at PI3K β (p110β/p85α).
In the case of `NC(=O)[C@@H]1CCCN1C(=O)C1CN(c2cnc3ccc(-c4ccc5oc(N)nc5c4)cc3n2)C1` [Compound 283], the pIC50 on PI3K δ is less than 5.00; on PI3K α (p110α/p85α), greater than 7.00; on PI3K β (p110β/p85α), less than 5.00.
Take `Nc1nc2c(-c3ccc4ncc(C(=O)N5CCOCC5)n4c3)cccc2o1` [Compound 496]: the pIC50 is less than 5.00 on PI3K δ, greater than 6.00 on PI3K α (p110α/p85α) and greater than 5.00 at PI3K β (p110β/p85α).
For `CNc1nc2cc(-c3ccc4ncc(C(=O)N5CCOCC5)n4c3)ccc2o1` [Compound 406], the negative logarithm of the IC50 (pIC50) on PI3K δ was less than 5.00; at PI3K α (p110α/p85α), greater than 5.00; at PI3K β (p110β/p85α), greater than 5.00.
Regarding `CN1CCN(C(=O)c2cnc3ccc(-c4ccc5nc(N)oc5c4)cn23)CC1` [Compound 145], the pIC50 was less than 5.00 at PI3K δ, greater than 6.00 on PI3K α (p110α/p85α) and greater than 5.00 on PI3K β (p110β/p85α).
Regarding `CN(C)CC(=O)N1CCC(Nc2ncnc3ccc(-c4ccc5oc(N)nc5c4)cc23)CC1` [Compound 103], the pIC50 at PI3K δ was greater than 6.00; at PI3K α (p110α/p85α) it was greater than 7.00; at PI3K β (p110β/p85α), greater than 6.00.
As to `Nc1nc2cc(-c3ccc4ncc(N5CC[C@@H](N6CCOCC6)C5)nc4c3)ccc2o1` [Compound 376], the pIC50 was greater than 5.00 at PI3K δ, greater than 7.00 at PI3K α (p110α/p85α) and greater than 5.00 on PI3K β (p110β/p85α).
With `C[C@H]1COCCN1C1CN(c2cnc3ccc(-c4ccc5oc(N)nc5c4)nc3c2)C1` [Compound 619], the pIC50 at PI3K δ (Table 4 (PI3K α inhibitors)) is less than 5.00; on PI3K α (p110α/p85α) (Table 4 (PI3K α inhibitors)), greater than 7.00; at PI3K β (p110β/p85α) (Table 4 (PI3K α inhibitors)), less than 5.00.
Consider `Nc1nc2cc(-c3ccc4ncc(NCCCN5CCCC5)nc4c3)ccc2o1` [Compound 221], for which the pIC50 at PI3K δ was greater than 7.00; at PI3K α (p110α/p85α), greater than 7.00; on PI3K β (p110β/p85α), greater than 6.00.
Turning to `Nc1nc2cc(-c3ccc4ncn(C5CCNCC5)c(=O)c4c3)ccc2o1` [Compound 75], the results for the pIC50 on PI3K δ, at PI3K α (p110α/p85α) and on PI3K β (p110β/p85α) were less than 5.00, greater than 7.00 and greater than 5.00, respectively.
Taken in the same sequence, the figures for `CC1(C)COCCN1C(=O)c1cnc2ccc(-c3ccc4oc(N)nc4c3)cn12` [Compound 514] were less than 5.00, greater than 6.00 and less than 5.00.
As for `CN(C(=O)c1cnc2ccc(-c3ccc4oc(N)nc4c3)cn12)C1CCOCC1` [Compound 472], the pIC50 was greater than 5.00 on PI3K δ, greater than 7.00 at PI3K α (p110α/p85α) and greater than 5.00 on PI3K β (p110β/p85α).
As to `Nc1nc2cc(-c3ccc4ncc(-c5cn[nH]c5)nc4c3)ccc2o1` [Compound 78], the pIC50 was greater than 6.00 on PI3K δ, greater than 7.00 on PI3K α (p110α/p85α) and greater than 6.00 on PI3K β (p110β/p85α).
As to `COc1ncc(-c2ccc3ncc(C(=O)N4CCOCC4)n3c2)cc1NS(=O)(=O)c1cccc(F)c1` [Compound 423], the pIC50 at PI3K δ was greater than 7.00; at PI3K α (p110α/p85α) it was greater than 7.00; on PI3K β (p110β/p85α), greater than 6.00.
For the molecule `CC(=O)Nc1n[nH]c2ccc(-c3ccc4oc(N)nc4c3)cc12` [Compound 431], the negative-log IC50 (pIC50) at PI3K δ, on PI3K α (p110α/p85α) and at PI3K β (p110β/p85α) was less than 5.00 each time.
Consider `C[C@@H]1CN(C2CN(C(=O)c3cnc4ccc(-c5ccc6oc(N)nc6c5)cn34)C2)CCN1` [Compound 511], for which the negative-log IC50 (pIC50) was greater than 6.00 at PI3K δ, greater than 7.00 on PI3K α (p110α/p85α) and greater than 5.00 at PI3K β (p110β/p85α).
In the case of `NC(=O)[C@H]1CCCN1C(=O)c1cnc2ccc(-c3ccc4oc(N)nc4c3)cn12` [Compound 260], the values for the pIC50 at PI3K δ, at PI3K α (p110α/p85α) and at PI3K β (p110β/p85α) were less than 5.00, greater than 6.00 and less than 5.00, respectively.
On to `C[C@H]1CN(c2cnc3ccc(-c4ccc5oc(N)nc5c4)cc3n2)CCN1` [Compound 178], for which the pIC50 on PI3K δ was greater than 6.00; at PI3K α (p110α/p85α), greater than 7.00; on PI3K β (p110β/p85α), greater than 7.00.
As to `O=C(c1cnc2ccc(-c3ccc(Cl)c(NS(=O)(=O)c4ccccc4)c3)cn12)N1CCOCC1` [Compound 459], the pIC50 was less than 5.00 on PI3K δ, greater than 6.00 at PI3K α (p110α/p85α) and less than 5.00 on PI3K β (p110β/p85α).
As to `C[C@H]1CN(c2cnc3ccc(-c4ccc5nc(N)sc5c4)cc3n2)CCN1` [Compound 308], the values for the pIC50 at PI3K δ, on PI3K α (p110α/p85α) and on PI3K β (p110β/p85α) were less than 5.00, greater than 6.00 and greater than 6.00, respectively.

Usually pIC50 stands for the negative decadic logarithm of the IC50, by convention in mol/L.
